The experiment concerns K24384-001-R-PDC complex spheroid viability. Description: Anticancer human tumor K24384-001-R-PDC patient-derived pancreatic adenocarcinoma cell line growth inhibition. Particulars: for viability, T/C: stronger effect = lower value. The method, boiled down:
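Multicellular complex spheroids of tumor cells with human endothelial cells (HUVEC) and mesenchymal stem cells; the LSD1 inhibitor iadademstat was combined with standard-of-care or investigational agents. Top concentration at or near clinical Cmax, half-log dilutions; final DMSO ≤0.25%.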

Setting [1] is: curve of first compound, second compound 0.1 µM.
Where [2] appears, read: curve of first compound, second compound 0.316 µM.
Setting [3] is: curve of first compound, second compound 1 µM.
[4] abbreviates: curve of first compound, second compound 3.16 µM.
[5] abbreviates: curve of first compound, second compound 10 µM.
Setting [6] is: second compound 0.1 µM, first compound 0.0316 µM.
The mark [7] stands for this setting: second compound 0.1 µM, first compound 0.1 µM.
[8] abbreviates: second compound 0.316 µM, first compound 0.0316 µM.
Setting [9] is: second compound 0.316 µM, first compound 0.1 µM.
[10] abbreviates: second compound 1 µM, first compound 0.0316 µM.
[11] abbreviates: second compound 1 µM, first compound 0.1 µM.
The mark [12] stands for this setting: second compound 3.16 µM, first compound 0.0316 µM.
Setting [13] is: second compound 3.16 µM, first compound 0.1 µM.
[14] abbreviates: second compound 10 µM, first compound 0.0316 µM.
Where [15] appears, read: second compound 10 µM, first compound 0.1 µM.

Each structure is given as a SMILES string. Values joined by “and” are separate entries in the source; they are usually repeats but may differ in a detail not shown here. Identical values can stand only once.

IC50 and viability, T/C data for five compounds are collected here from PubChem BioAssay AID1918949 (Molecular Pharmacology Branch, DTP, NCI, 2023).

Usually IC50 stands for the midpoint of a concentration-inhibition curve. Broadly, the viability, T/C is the result in the treated group divided by that in the control group, in per cent.
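Note: spheroids exposed to agents for seven days before luminescence viability reading.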
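Throughout, for viability, T/C: 100% = DMSO vehicle control viability.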

Take `CCc1c2c(nc3ccc(O)cc13)-c1cc3c(c(=O)n1C2)COC(=O)[C@]3(O)CC` + NC1CC1c1ccc(-c2cccc(O)c2)cc1: the IC50 reads like this: under setting [1], below 0.000949 µM; under setting [2], below 0.000949 µM; under setting [3], below 0.000949 µM; under setting [4], below 0.000949 µM; under setting [5], below 0.000949 µM. The viability, T/C was 38.8% (second compound 0.1 µM, first compound 0.000949 µM); 32.7% (second compound 0.1 µM, first compound 0.003 µM); 28.5% (second compound 0.1 µM, first compound 0.00949 µM); 8.07% (second compound 0.1 µM, first compound 0.03 µM); 5.66% (second compound 0.1 µM, first compound 0.0949 µM); 4.56% (second compound 0.1 µM, first compound 0.3 µM). The viability, T/C (second compound 0.316 µM, first compound 0.000949 µM) was 34.2%; the viability, T/C (second compound 0.316 µM, first compound 0.003 µM) was 30.9%; the viability, T/C (second compound 0.316 µM, first compound 0.00949 µM) is 31.5%; the viability, T/C (second compound 0.316 µM, first compound 0.03 µM) is 10.9%; the viability, T/C (second compound 0.316 µM, first compound 0.0949 µM) is 8.49%; the viability, T/C (second compound 0.316 µM, first compound 0.3 µM) was 5.16%. Further, the viability, T/C reads like this: (second compound 1 µM, first compound 0.000949 µM) 36.8%; (second compound 1 µM, first compound 0.003 µM) 34.2%; (second compound 1 µM, first compound 0.00949 µM) 26.4%; (second compound 1 µM, first compound 0.03 µM) 7.42%; (second compound 1 µM, first compound 0.0949 µM) 4.74%; (second compound 1 µM, first compound 0.3 µM) 4.43%. The viability, T/C reads like this: (second compound 3.16 µM, first compound 0.000949 µM) 37.1%; (second compound 3.16 µM, first compound 0.003 µM) 33.7%; (second compound 3.16 µM, first compound 0.00949 µM) 25.8%; (second compound 3.16 µM, first compound 0.03 µM) 7.05%; (second compound 3.16 µM, first compound 0.0949 µM) 4.62%; (second compound 3.16 µM, first compound 0.3 µM) 4.99%. Further, the viability, T/C reads like this: (second compound 10 µM, first compound 0.000949 µM) 43.4%; (second compound 10 µM, first compound 0.003 µM) 34.2%; (second compound 10 µM, first compound 0.00949 µM) 24%; (second compound 10 µM, first compound 0.03 µM) 5.88%; (second compound 10 µM, first compound 0.0949 µM) 5.79%; (second compound 10 µM, first compound 0.3 µM) 4.12%.

Take `COc1cc(Nc2ncc3c(n2)-c2ccc(Cl)cc2C(c2c(F)cccc2OC)=NC3)ccc1C(=O)O`: the viability, T/C is 106% and 74.5% (compound 0.00316 µM); 94.8% and 78.3% (compound 0.01 µM); 85.9% and 62.4% (compound 0.0316 µM); 69.7% and 63.6% (compound 0.1 µM); 79.4% and 69.7% (compound 0.316 µM); 87.7% and 70.3% (compound 1 µM). Also, the IC50 (curve of compound) was above 1 µM.

Regarding `CC1COCCN1c1cc(C2(S(C)(=N)=O)CC2)nc(-c2ccnc3[nH]ccc23)n1` (centres undefined) + NC1CC1c1ccc(-c2cccc(O)c2)cc1, the IC50 is, setting by setting: under setting [1], 1.55 µM; under setting [2], 1.38 µM; under setting [3], 1.18 µM; under setting [4], 1.32 µM; under setting [5], 0.776 µM. Further, the viability, T/C runs as follows: under setting [6], 89.4%; under setting [7], 108%; (second compound 0.1 µM, first compound 0.316 µM) 95.3%; (second compound 0.1 µM, first compound 1 µM) 58.8%; (second compound 0.1 µM, first compound 3.16 µM) 33.7%; (second compound 0.1 µM, first compound 10 µM) 38.1%. Also, the viability, T/C is, setting by setting: under setting [8], 85.8%; under setting [9], 85.9%; (second compound 0.316 µM, first compound 0.316 µM) 72.3%; (second compound 0.316 µM, first compound 1 µM) 57.7%; (second compound 0.316 µM, first compound 3.16 µM) 34%; (second compound 0.316 µM, first compound 10 µM) 36.4%. Further, the viability, T/C by setting is: under setting [10], 79.5%; under setting [11], 73.9%; (second compound 1 µM, first compound 0.316 µM) 76.5%; (second compound 1 µM, first compound 1 µM) 53%; (second compound 1 µM, first compound 3.16 µM) 29.1%; (second compound 1 µM, first compound 10 µM) 34.1%. Besides, the viability, T/C runs as follows: under setting [12], 82.4%; under setting [13], 77.4%; (second compound 3.16 µM, first compound 0.316 µM) 73.2%; (second compound 3.16 µM, first compound 1 µM) 56.7%; (second compound 3.16 µM, first compound 3.16 µM) 27.9%; (second compound 3.16 µM, first compound 10 µM) 32%. Besides, the viability, T/C under setting [14] is 87.7%; the viability, T/C under setting [15] is 81.5%; the viability, T/C (second compound 10 µM, first compound 0.316 µM) was 70%; the viability, T/C (second compound 10 µM, first compound 1 µM) was 45.2%; the viability, T/C (second compound 10 µM, first compound 3.16 µM) was 29.1%; the viability, T/C (second compound 10 µM, first compound 10 µM) was 31.1%.

Turning to `COc1cc(C2c3cc4c(cc3C(OC3OC5COC(C)OC5C(O)C3O)C3COC(=O)C23)OCO4)cc(OC)c1O` (centres undefined), the viability, T/C is, setting by setting: (compound 0.00949 µM) 96.2% and 95.2%; (compound 0.03 µM) 91.9% and 98.1%; (compound 0.0949 µM) 82% and 74.3%; (compound 0.3 µM) 62.3% and 52.5%; (compound 0.949 µM) 59.8% and 49.5%; (compound 3 µM) 42.1% and 33%. In addition, the IC50 (curve of compound) was 1.59 µM and 0.461 µM.

Take `CC[C@@]1(O)C(=O)OCc2c1cc1n(c2=O)Cc2cc3c(CN(C)C)c(O)ccc3nc2-1` + NC1CCC(NC2CC2c2ccccc2)CC1: the IC50 reads like this: under setting [1], 0.0899 µM; under setting [2], above 0.1 µM; under setting [3], 0.0886 µM; under setting [4], 0.0845 µM; under setting [5], above 0.1 µM. In addition, the viability, T/C (second compound 0.1 µM, first compound 0.000316 µM) was 93.1%; the viability, T/C (second compound 0.1 µM, first compound 0.001 µM) is 87.2%; the viability, T/C (second compound 0.1 µM, first compound 0.00316 µM) is 77.6%; the viability, T/C (second compound 0.1 µM, first compound 0.01 µM) was 68.9%; the viability, T/C under setting [6] is 61.2%; the viability, T/C under setting [7] is 48.1%. Further, the viability, T/C by setting is: (second compound 0.316 µM, first compound 0.000316 µM) 99.3%; (second compound 0.316 µM, first compound 0.001 µM) 81.2%; (second compound 0.316 µM, first compound 0.00316 µM) 82.3%; (second compound 0.316 µM, first compound 0.01 µM) 84%; under setting [8], 70.2%; under setting [9], 49.6%. In addition, the viability, T/C by setting is: (second compound 1 µM, first compound 0.000316 µM) 89.5%; (second compound 1 µM, first compound 0.001 µM) 82.7%; (second compound 1 µM, first compound 0.00316 µM) 75.5%; (second compound 1 µM, first compound 0.01 µM) 59%; under setting [10], 54.6%; under setting [11], 49%. For the same compound, the viability, T/C (second compound 3.16 µM, first compound 0.000316 µM) was 93.7%; the viability, T/C (second compound 3.16 µM, first compound 0.001 µM) is 91.8%; the viability, T/C (second compound 3.16 µM, first compound 0.00316 µM) was 81%; the viability, T/C (second compound 3.16 µM, first compound 0.01 µM) was 77%; the viability, T/C under setting [12] is 64.5%; the viability, T/C under setting [13] is 47%. The viability, T/C (second compound 10 µM, first compound 0.000316 µM) was 101%; the viability, T/C (second compound 10 µM, first compound 0.001 µM) is 88.2%; the viability, T/C (second compound 10 µM, first compound 0.00316 µM) is 88.7%; the viability, T/C (second compound 10 µM, first compound 0.01 µM) is 61.7%; the viability, T/C under setting [14] is 53.9%; the viability, T/C under setting [15] was 49.8%.
